Experimental data published in US4798897A, “Isoquinoline derivatives” (Asahi Kasei Kogyo Kabushiki Kaisha, priority 1987, dated 1989).

Tested on: mesenteric artery
Assay: Relaxation of mesenteric artery (KCl-contracted)
Conditions: Oryctolagus cuniculus; rabbit mesenteric artery contracted with 15 to 20 mM KCl; read-out: ED50 (concentration attaining 50% of complete relaxation)
Procedure: 1. Relaxation of Mesenteric Artery
A rabbit of Japanese local variety weighing about 3 kg was bled to death. Then, the abdomen of the rabbit was dissected to locate a mesenteric artery. […] Thus, shrinking and relaxation of the artery could be measured as a load on the transducer. To the organ bath, KCl was added so that the KCl concentration became 15 to 20 mM, causing the artery to shrink. Then, the compounds of the present invention were added to the organ bath to observe relaxation of the artery.
The effect of the compounds of the present invention on relaxation of mesenteric artery was examined according to the method as mentioned hereinbefore.
With `NC1CCCN(S(=O)(=O)c2cccc3cnccc23)C1` (stereo not drawn) [Compound (63), 1-(5-isoquinolinesulfonyl)-3-aminopiperidine] the EC50 was 3 µM.
Compound `CCCCCCNCCN(CC)S(=O)(=O)c1cccc2cnccc12` [Compound (28), N-ethyl-N-(2-hexylaminoethyl)-5-isoquinolinesulfonamide] has an EC50 of 10 µM.
`CCCCN(CCN)S(=O)(=O)c1cccc2cnccc12` [Compound (3), N-(2-aminoethyl)-N-butyl-5-isoquinolinesulfonamide] gave an EC50 of 2 µM.
`CCCCCCNC1CCCN(S(=O)(=O)c2cccc3cnccc23)C1` (stereo not drawn) [Compound (71), 1-(5-isoquinolinesulfonyl)-3-hexylaminopiperidine] gave an EC50 of 4 µM.
In the case of `CCCCCCN(CCN)S(=O)(=O)c1cccc2cnccc12` [Compound (4), N-(2-aminoethyl)-N-hexyl-5-isoquinolinesulfonamide], the EC50 is reported as 1 µM.
`NC1CCCN(S(=O)(=O)c2cccc3c(O)nccc23)C1` (stereo not drawn) [Compound (84), 1-(1-hydroxy-5-isoquinolinesulfonyl)-3-aminopiperidine] gave an EC50 of 13 µM.
With `CNC1CCCN(S(=O)(=O)c2cccc3cnccc23)C1` (stereo not drawn) [Compound (64), 1-(5-isoquinolinesulfonyl)-3-methylaminopiperidine] the EC50 was 6 µM.
In the case of `CN(C)C1CCCN(S(=O)(=O)c2cccc3c(O)nccc23)C1` (stereo not drawn) [Compound (90), 1-(1-hydroxy-5-isoquinolinesulfonyl)-3-dimethylaminopiperidine], the EC50 is reported as 23 µM.

Tested on: coronary artery
Assay: Blood flow increase of coronary artery in anesthetized dogs, i.v.
Assay type: in vivo, dog (mongrel)
Conditions: Canis lupus familiaris, iv; dog, 1.0 mg/kg
Procedure: (§1) 2. Blood Flow Increase of Coronary, Vertebral and Femoral Arteries
(§2) A plethysmographic probe (manufactured and sold by NIHON KODEN CO., LTD., Japan) was mounted on the coronary, vertebral and femoral arteries, and blood flow was measured by means of an electromagnetic blood flowmeter (type:MF-27, manufactured and sold by NIHON KODEN CO., LTD., Japan). Under these conditions, the compounds of the present invention were intravenously administered through a polyethylene tube inserted to a femoral veinlet, and the change in blood flow was measured for 30 minutes by means of the electromagnetic blood flowmeter.
(§3) The effects (dilation of the arteries) of the compounds of the present invention on blood flow in coronary, vertebral and femoral arteries were examined according to the method as mentioned hereinbefore.
`NC1CCCN(S(=O)(=O)c2cccc3cnccc23)C1` (stereo not drawn) [Compound (63), 1-(5-isoquinolinesulfonyl)-3-aminopiperidine] gave a change in vivo at 1 mg/kg of 128%.
For `CCCCCCNC1CCCN(S(=O)(=O)c2cccc3cnccc23)C1` (stereo not drawn) [Compound (71), 1-(5-isoquinolinesulfonyl)-3-hexylaminopiperidine], the change in vivo at 1 mg/kg was 102%.
In the case of `NC1CCCN(S(=O)(=O)c2cccc3c(O)nccc23)C1` (stereo not drawn) [Compound (84), 1-(1-hydroxy-5-isoquinolinesulfonyl)-3-aminopiperidine], the change in vivo at 1 mg/kg is reported as 74%.

Same assay, conditions: Canis lupus familiaris, iv; dog, i.v., 0.3 mg/kg; read-out: Increase in coronary artery blood flow
Work on `NC1CCCN(S(=O)(=O)c2cccc3cnccc23)C1` (stereo not drawn) [Compound (63), 1-(5-isoquinolinesulfonyl)-3-aminopiperidine] yielded a change in vivo at 0.3 mg/kg of 91%.
Work on `CCCCCCNCCN(CC)S(=O)(=O)c1cccc2cnccc12` [Compound (28), N-ethyl-N-(2-hexylaminoethyl)-5-isoquinolinesulfonamide] yielded a change in vivo at 0.3 mg/kg of 114%.
For `CCCCN(CCN)S(=O)(=O)c1cccc2cnccc12` [Compound (3), N-(2-aminoethyl)-N-butyl-5-isoquinolinesulfonamide], the change in vivo at 0.3 mg/kg was 134%.
Compound `CCCCCCN(CCN)S(=O)(=O)c1cccc2cnccc12` [Compound (4), N-(2-aminoethyl)-N-hexyl-5-isoquinolinesulfonamide] has a change in vivo at 0.3 mg/kg of 188%.

Tested on: vertebral artery
Assay: Blood flow increase of vertebral artery in anesthetized dogs, i.v.
Assay type: in vivo, dog (mongrel)
Conditions: Canis lupus familiaris, iv; dog, 1.0 mg/kg
Procedure: as §1, §2, §3
Work on `NC1CCCN(S(=O)(=O)c2cccc3cnccc23)C1` (stereo not drawn) [Compound (63), 1-(5-isoquinolinesulfonyl)-3-aminopiperidine] yielded a change in vivo at 1 mg/kg of 95%.
With `CCCCCCNC1CCCN(S(=O)(=O)c2cccc3cnccc23)C1` (stereo not drawn) [Compound (71), 1-(5-isoquinolinesulfonyl)-3-hexylaminopiperidine] the change in vivo at 1 mg/kg was 85%.
`NC1CCCN(S(=O)(=O)c2cccc3c(O)nccc23)C1` (stereo not drawn) [Compound (84), 1-(1-hydroxy-5-isoquinolinesulfonyl)-3-aminopiperidine] gave a change in vivo at 1 mg/kg of 51%.

Same assay, conditions: Canis lupus familiaris, iv; dog, i.v., 0.3 mg/kg; read-out: Increase in vertebral artery blood flow
For `NC1CCCN(S(=O)(=O)c2cccc3cnccc23)C1` (stereo not drawn) [Compound (63), 1-(5-isoquinolinesulfonyl)-3-aminopiperidine], the change in vivo at 0.3 mg/kg was 72%.
`CCCCCCNCCN(CC)S(=O)(=O)c1cccc2cnccc12` [Compound (28), N-ethyl-N-(2-hexylaminoethyl)-5-isoquinolinesulfonamide] showed a change in vivo at 0.3 mg/kg of 110%.
`CCCCN(CCN)S(=O)(=O)c1cccc2cnccc12` [Compound (3), N-(2-aminoethyl)-N-butyl-5-isoquinolinesulfonamide] gave a change in vivo at 0.3 mg/kg of 130%.
With `CCCCCCN(CCN)S(=O)(=O)c1cccc2cnccc12` [Compound (4), N-(2-aminoethyl)-N-hexyl-5-isoquinolinesulfonamide] the change in vivo at 0.3 mg/kg was 170%.

Tested on: femoral artery
Assay: Blood flow increase of femoral artery in anesthetized dogs, i.v.
Assay type: in vivo, dog (mongrel)
Conditions: Canis lupus familiaris, iv; dog, 1.0 mg/kg
Procedure: as §1, §2, §3
`NC1CCCN(S(=O)(=O)c2cccc3cnccc23)C1` (stereo not drawn) [Compound (63), 1-(5-isoquinolinesulfonyl)-3-aminopiperidine] gave a change in vivo at 1 mg/kg of 38%.
Work on `CCCCCCNC1CCCN(S(=O)(=O)c2cccc3cnccc23)C1` (stereo not drawn) [Compound (71), 1-(5-isoquinolinesulfonyl)-3-hexylaminopiperidine] yielded a change in vivo at 1 mg/kg of 35%.
For `NC1CCCN(S(=O)(=O)c2cccc3c(O)nccc23)C1` (stereo not drawn) [Compound (84), 1-(1-hydroxy-5-isoquinolinesulfonyl)-3-aminopiperidine], the change in vivo at 1 mg/kg was 27%.

Same assay, conditions: Canis lupus familiaris, iv; dog, i.v., 0.3 mg/kg; read-out: Increase in femoral artery blood flow
Compound `NC1CCCN(S(=O)(=O)c2cccc3cnccc23)C1` (stereo not drawn) [Compound (63), 1-(5-isoquinolinesulfonyl)-3-aminopiperidine] has a change in vivo at 0.3 mg/kg of 20%.
For `CCCCCCNCCN(CC)S(=O)(=O)c1cccc2cnccc12` [Compound (28), N-ethyl-N-(2-hexylaminoethyl)-5-isoquinolinesulfonamide], the change in vivo at 0.3 mg/kg was 31%.
Work on `CCCCN(CCN)S(=O)(=O)c1cccc2cnccc12` [Compound (3), N-(2-aminoethyl)-N-butyl-5-isoquinolinesulfonamide] yielded a change in vivo at 0.3 mg/kg of 25%.
`CCCCCCN(CCN)S(=O)(=O)c1cccc2cnccc12` [Compound (4), N-(2-aminoethyl)-N-hexyl-5-isoquinolinesulfonamide] gave a change in vivo at 0.3 mg/kg of 38%.

Tested on: bronchial tubes
Assay: Inhibition of histamine contraction of bronchial tubes (relaxation of bronchial tubes)
Conditions: Cavia porcellus; guinea pig bronchial tube, 10 μM histamine; Table 16; read-out: ED50 (50% decrease of histamine contraction of bronchial tubes)
Procedure: 3. Inhibition of Histamine Contraction of Bronchial Tubes (Relaxation of Bronchial Tubes)
That is, a bronchial tube sample taken from a guinea pig was suspended in the 20-ml bath filled with Krebs-Henseleit nutrient solution and maintained at a temperature of 37° C. To the bath was added histamine so that the histamine concentration became 10 μM, causing the bronchial tube sample to contract. After the contraction became stable, the compounds of the present invention were added cumulatively to the bath to observe relaxation of the bronchial tube sample.
The effect of the compounds of the present invention on relaxation of bronchial tubes was examined according to the method as mentioned hereinbefore.
`NC1CCCN(S(=O)(=O)c2cccc3cnccc23)C1` (stereo not drawn) [Compound (63), 1-(5-isoquinolinesulfonyl)-3-aminopiperidine] showed an EC50 of 3 µM.
`CCCCCCNCCN(CC)S(=O)(=O)c1cccc2cnccc12` [Compound (28), N-ethyl-N-(2-hexylaminoethyl)-5-isoquinolinesulfonamide] gave an EC50 of 9 µM.
For `CCCCN(CCN)S(=O)(=O)c1cccc2cnccc12` [Compound (3), N-(2-aminoethyl)-N-butyl-5-isoquinolinesulfonamide], the EC50 was 5 µM.
For `CCCCCCNC1CCCN(S(=O)(=O)c2cccc3cnccc23)C1` (stereo not drawn) [Compound (71), 1-(5-isoquinolinesulfonyl)-3-hexylaminopiperidine], the EC50 was 10 µM.
`CCCCCCN(CCN)S(=O)(=O)c1cccc2cnccc12` [Compound (4), N-(2-aminoethyl)-N-hexyl-5-isoquinolinesulfonamide] showed an EC50 of 3 µM.
Compound `NC1CCCN(S(=O)(=O)c2cccc3c(O)nccc23)C1` (stereo not drawn) [Compound (84), 1-(1-hydroxy-5-isoquinolinesulfonyl)-3-aminopiperidine] has an EC50 of 8 µM.
`CNC1CCCN(S(=O)(=O)c2cccc3cnccc23)C1` (stereo not drawn) [Compound (64), 1-(5-isoquinolinesulfonyl)-3-methylaminopiperidine] gave an EC50 of 6 µM.
For `CN(C)C1CCCN(S(=O)(=O)c2cccc3c(O)nccc23)C1` (stereo not drawn) [Compound (90), 1-(1-hydroxy-5-isoquinolinesulfonyl)-3-dimethylaminopiperidine], the EC50 was 17 µM.

Tested on: not listed separately
Assay: Acute toxicity in mice
Conditions: mouse, in vivo, iv; male mice
Procedure: (§4) Using ddY male mice and Wistar male rats, the acute toxicity of the compounds of the present invention was examined with respect to LD50 according to the method proposed by K. Takagi et al. (K. Takagi and H. Ozawa, "Expeprimental Techniques in Pharmacology," p200-206 (1960), NANZANDO CO., LTD., Japan).
(§5) Compounds of the present invention were tested with respect to acute toxicities according to the method as mentioned hereinbefore.
In the case of `NC1CCCN(S(=O)(=O)c2cccc3cnccc23)C1` (stereo not drawn) [Compound (63), 1-(5-isoquinolinesulfonyl)-3-aminopiperidine], the LD50 is reported as 176 mg/kg.
`CCCCCCNCCN(CC)S(=O)(=O)c1cccc2cnccc12` [Compound (28), N-ethyl-N-(2-hexylaminoethyl)-5-isoquinolinesulfonamide] showed an LD50 of 145 mg/kg.
For `CCCCN(CCN)S(=O)(=O)c1cccc2cnccc12` [Compound (3), N-(2-aminoethyl)-N-butyl-5-isoquinolinesulfonamide], the LD50 was 105 mg/kg.
Work on `CCCCCCN(CCN)S(=O)(=O)c1cccc2cnccc12` [Compound (4), N-(2-aminoethyl)-N-hexyl-5-isoquinolinesulfonamide] yielded an LD50 of 95 mg/kg.
In the case of `NC1CCCN(S(=O)(=O)c2cccc3c(O)nccc23)C1` (stereo not drawn) [Compound (84), 1-(1-hydroxy-5-isoquinolinesulfonyl)-3-aminopiperidine], the LD50 is reported as 141 mg/kg.

Same assay, conditions: mouse, in vivo, po; male mice
In the case of `NC1CCCN(S(=O)(=O)c2cccc3cnccc23)C1` (stereo not drawn) [Compound (63), 1-(5-isoquinolinesulfonyl)-3-aminopiperidine], the LD50 is reported as 1120 mg/kg.
`CCCCCCN(CCN)S(=O)(=O)c1cccc2cnccc12` [Compound (4), N-(2-aminoethyl)-N-hexyl-5-isoquinolinesulfonamide] gave an LD50 of 1100 mg/kg.

Tested on: not listed separately
Assay: Acute toxicity in rats
Conditions: in vivo, iv; male rat
Procedure: as §4, §5
In the case of `NC1CCCN(S(=O)(=O)c2cccc3cnccc23)C1` (stereo not drawn) [Compound (63), 1-(5-isoquinolinesulfonyl)-3-aminopiperidine], the LD50 is reported as 194 mg/kg.
Work on `CCCCCCN(CCN)S(=O)(=O)c1cccc2cnccc12` [Compound (4), N-(2-aminoethyl)-N-hexyl-5-isoquinolinesulfonamide] yielded an LD50 of 131 mg/kg.

Same assay, conditions: in vivo, po; male rat
Work on `NC1CCCN(S(=O)(=O)c2cccc3cnccc23)C1` (stereo not drawn) [Compound (63), 1-(5-isoquinolinesulfonyl)-3-aminopiperidine] yielded an LD50 of 1220 mg/kg.
Work on `CCCCCCN(CCN)S(=O)(=O)c1cccc2cnccc12` [Compound (4), N-(2-aminoethyl)-N-hexyl-5-isoquinolinesulfonamide] yielded an LD50 of 968 mg/kg.
